Assays:
other 5HT receptors = assay: pKi value towards other 5HT receptors; assay type: binding
other dopamine receptors = assay: pKi value towards other dopamine receptors; assay type: binding
[1] = system: patients with major depression; assay: Semi-naturalistic open label study of combo pipamperone-citalopram in major depression; assay type: in vivo
Excerpt: Design: Semi-naturalistic i.e. inclusion of every 'natural' patient in an outpatient practice but without concomitant use of mood enhancing drugs, open label
Phase: Phase Ila - preliminary Proof of Concept
Location: Belgium - Research Centre ANIMA, Alken
End Points : Assessment scale scores, Hamilton Depression Rating Scale 17 items, Reduction, Response, Remission
Medication: Exclusion of mood stabilisers, antipsychotics (typical and atypical) and other antidepressants […]
Adverse events are assessed on: body as a whole, central and peripheral nervous system, gastrointestinal, musculoskeletal, psychiatric, respiratory, skin and appendages, vascular and urinary, taking into account discontinued treatment due to adverse events. Laboratory parameters, ECG, bodyweight and vital signs are not measured since this is a naturalistic study.

D2 = D2 (Homo sapiens, UniProt P14416); assay type: binding
D2, sequence (P14416 whole entry): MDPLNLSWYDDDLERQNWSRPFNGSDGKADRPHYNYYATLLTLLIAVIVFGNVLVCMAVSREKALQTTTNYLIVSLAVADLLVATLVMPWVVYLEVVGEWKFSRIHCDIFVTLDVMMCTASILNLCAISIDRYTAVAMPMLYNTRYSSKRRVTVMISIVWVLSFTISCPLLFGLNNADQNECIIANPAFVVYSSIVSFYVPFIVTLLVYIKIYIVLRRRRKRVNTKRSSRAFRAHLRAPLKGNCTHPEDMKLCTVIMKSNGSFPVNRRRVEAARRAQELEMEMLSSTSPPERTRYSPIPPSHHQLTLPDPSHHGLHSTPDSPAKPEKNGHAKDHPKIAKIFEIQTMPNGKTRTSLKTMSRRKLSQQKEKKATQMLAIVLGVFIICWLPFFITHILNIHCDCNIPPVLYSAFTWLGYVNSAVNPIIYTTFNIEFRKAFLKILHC

D3 = D3 (Homo sapiens, UniProt P35462); assay: biochemical; assay type: binding
D3, sequence (P35462 whole entry): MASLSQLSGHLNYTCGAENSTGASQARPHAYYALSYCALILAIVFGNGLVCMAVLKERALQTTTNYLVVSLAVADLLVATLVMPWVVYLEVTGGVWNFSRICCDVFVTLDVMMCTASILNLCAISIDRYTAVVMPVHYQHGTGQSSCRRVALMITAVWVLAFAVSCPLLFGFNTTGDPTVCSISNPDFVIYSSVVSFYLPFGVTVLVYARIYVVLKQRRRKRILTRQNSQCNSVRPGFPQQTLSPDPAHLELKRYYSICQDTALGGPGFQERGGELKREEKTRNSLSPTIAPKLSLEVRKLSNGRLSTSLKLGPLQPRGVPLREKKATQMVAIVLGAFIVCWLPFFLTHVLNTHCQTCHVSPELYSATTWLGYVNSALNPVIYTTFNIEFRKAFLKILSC

5HT2C = biological target: T1, 5HT2C (Homo sapiens, UniProt P28335); assay type: binding
T1 sequence (P28335 33-458): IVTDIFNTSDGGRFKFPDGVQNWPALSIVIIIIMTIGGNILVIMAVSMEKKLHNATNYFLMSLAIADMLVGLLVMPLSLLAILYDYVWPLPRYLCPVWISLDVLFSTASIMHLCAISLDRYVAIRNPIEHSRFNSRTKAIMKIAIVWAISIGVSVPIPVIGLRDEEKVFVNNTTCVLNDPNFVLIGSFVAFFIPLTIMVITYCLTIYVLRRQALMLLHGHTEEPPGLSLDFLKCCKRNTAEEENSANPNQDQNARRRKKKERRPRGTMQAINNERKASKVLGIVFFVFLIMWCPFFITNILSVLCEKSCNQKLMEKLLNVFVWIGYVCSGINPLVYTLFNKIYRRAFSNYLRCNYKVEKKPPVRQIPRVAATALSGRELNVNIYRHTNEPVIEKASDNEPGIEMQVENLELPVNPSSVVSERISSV

5HT6rat = 5HT6rat (Rattus norvegicus, UniProt P31388); assay: pKi values of test compounds, 5HT6 rat (Table 1); assay type: binding
5HT6rat, sequence (P31388 whole entry): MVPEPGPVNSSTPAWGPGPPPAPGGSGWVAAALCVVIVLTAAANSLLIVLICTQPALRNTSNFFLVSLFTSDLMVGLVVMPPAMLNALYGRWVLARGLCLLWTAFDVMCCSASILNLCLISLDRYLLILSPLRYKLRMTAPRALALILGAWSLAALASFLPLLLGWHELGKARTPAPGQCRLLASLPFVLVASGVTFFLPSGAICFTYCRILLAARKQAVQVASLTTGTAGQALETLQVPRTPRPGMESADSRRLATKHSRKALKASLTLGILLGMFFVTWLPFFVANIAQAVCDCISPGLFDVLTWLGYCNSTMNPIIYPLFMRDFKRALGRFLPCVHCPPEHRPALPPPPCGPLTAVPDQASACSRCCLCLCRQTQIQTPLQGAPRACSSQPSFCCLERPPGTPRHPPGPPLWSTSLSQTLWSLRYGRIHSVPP

Beta1 = Beta1 (Homo sapiens, UniProt P08588); assay: pKi values of test compounds, Beta1 (Table 1); assay type: binding
Beta1, sequence (P08588 whole entry): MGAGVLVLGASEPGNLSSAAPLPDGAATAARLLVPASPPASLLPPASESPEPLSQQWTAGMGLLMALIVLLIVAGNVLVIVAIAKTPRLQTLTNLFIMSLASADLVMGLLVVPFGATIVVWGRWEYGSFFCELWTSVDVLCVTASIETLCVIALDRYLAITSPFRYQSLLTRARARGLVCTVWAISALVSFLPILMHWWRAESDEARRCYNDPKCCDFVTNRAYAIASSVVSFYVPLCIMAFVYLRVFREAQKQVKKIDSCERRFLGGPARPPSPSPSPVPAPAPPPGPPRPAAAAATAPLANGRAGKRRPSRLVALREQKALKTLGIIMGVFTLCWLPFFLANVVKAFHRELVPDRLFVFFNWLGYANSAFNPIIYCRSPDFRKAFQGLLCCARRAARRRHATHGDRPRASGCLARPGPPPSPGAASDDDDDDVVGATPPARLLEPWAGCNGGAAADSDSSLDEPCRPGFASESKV

Beta2 = Beta2 (Homo sapiens, UniProt P07550); assay: pKi values of test compounds, Beta2 (Table 1); assay type: binding
Beta2, sequence (P07550 whole entry): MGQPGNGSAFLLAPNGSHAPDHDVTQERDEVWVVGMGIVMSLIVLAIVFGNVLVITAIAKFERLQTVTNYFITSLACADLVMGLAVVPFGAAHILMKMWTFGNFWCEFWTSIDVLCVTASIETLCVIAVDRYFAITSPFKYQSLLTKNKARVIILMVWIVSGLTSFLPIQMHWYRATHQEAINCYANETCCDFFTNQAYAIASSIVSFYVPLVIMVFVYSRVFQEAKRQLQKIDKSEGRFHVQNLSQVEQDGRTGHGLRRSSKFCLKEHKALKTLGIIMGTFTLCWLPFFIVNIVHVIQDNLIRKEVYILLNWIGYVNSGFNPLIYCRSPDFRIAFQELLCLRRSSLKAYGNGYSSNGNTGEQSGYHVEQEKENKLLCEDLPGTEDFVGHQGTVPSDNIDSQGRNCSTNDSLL

5HT1B = 5HT1B (Homo sapiens, UniProt P28222); assay: biochemical; assay type: binding
5HT1B, sequence (P28222 whole entry): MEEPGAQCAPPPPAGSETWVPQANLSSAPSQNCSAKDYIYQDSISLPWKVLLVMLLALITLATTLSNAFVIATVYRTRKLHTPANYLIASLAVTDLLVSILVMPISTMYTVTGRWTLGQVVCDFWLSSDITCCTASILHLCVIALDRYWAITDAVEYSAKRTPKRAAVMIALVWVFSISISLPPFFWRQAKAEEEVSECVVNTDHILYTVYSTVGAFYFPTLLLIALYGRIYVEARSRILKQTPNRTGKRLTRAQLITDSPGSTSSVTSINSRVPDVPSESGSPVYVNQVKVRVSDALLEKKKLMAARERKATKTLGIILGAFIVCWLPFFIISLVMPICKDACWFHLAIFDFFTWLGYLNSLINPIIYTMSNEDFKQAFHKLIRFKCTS

5HT1D = 5HT1D (Homo sapiens, UniProt P28221); assay: biochemical; assay type: binding
5HT1D, sequence (P28221 whole entry): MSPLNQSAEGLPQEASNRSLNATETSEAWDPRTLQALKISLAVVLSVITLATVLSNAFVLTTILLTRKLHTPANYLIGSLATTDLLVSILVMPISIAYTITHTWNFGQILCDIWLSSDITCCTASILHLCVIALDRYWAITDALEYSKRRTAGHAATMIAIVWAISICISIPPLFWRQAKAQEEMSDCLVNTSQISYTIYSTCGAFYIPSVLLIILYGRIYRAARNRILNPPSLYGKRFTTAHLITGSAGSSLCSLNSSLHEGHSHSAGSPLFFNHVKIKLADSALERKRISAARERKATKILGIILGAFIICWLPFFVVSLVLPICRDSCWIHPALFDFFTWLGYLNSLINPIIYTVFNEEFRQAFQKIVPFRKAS

5HT2B = 5HT2B (Homo sapiens, UniProt P41595); assay: pKi values of test compounds, 5HT2B (Table 1); assay type: binding
5HT2B, sequence (P41595 whole entry): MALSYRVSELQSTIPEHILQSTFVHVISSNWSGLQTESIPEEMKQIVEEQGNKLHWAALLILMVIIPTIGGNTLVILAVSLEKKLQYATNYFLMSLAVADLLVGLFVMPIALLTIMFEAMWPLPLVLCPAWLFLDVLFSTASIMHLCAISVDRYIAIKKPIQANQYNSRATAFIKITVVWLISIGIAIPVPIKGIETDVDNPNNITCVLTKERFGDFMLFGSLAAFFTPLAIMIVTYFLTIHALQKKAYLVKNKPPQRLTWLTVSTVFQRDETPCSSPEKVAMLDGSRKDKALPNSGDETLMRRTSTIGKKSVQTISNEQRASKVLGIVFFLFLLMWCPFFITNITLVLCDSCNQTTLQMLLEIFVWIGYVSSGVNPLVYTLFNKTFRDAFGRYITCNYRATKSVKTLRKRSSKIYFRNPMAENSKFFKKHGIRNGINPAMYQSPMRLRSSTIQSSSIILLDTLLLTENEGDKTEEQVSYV

Alpha2A = biological target: T2, Alpha2A (Homo sapiens, UniProt P08913); assay: pKi values of test compounds, Alpha2A (Table 1); assay type: binding
T2 sequence (P08913 1-465): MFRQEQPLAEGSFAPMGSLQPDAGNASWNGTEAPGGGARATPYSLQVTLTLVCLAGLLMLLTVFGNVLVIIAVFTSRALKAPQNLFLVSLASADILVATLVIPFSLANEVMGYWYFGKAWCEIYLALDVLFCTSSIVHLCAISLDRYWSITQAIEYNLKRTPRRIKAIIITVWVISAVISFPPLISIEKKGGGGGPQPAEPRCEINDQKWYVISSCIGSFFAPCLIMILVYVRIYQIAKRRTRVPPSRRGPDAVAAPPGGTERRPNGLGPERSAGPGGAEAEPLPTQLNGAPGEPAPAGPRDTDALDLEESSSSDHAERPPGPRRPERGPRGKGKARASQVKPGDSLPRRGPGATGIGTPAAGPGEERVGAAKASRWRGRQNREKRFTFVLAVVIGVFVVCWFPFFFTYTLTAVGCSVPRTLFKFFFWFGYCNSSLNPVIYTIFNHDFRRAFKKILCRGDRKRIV

D1 = D1 (Homo sapiens, UniProt P21728); assay type: binding
D1, sequence (P21728 whole entry): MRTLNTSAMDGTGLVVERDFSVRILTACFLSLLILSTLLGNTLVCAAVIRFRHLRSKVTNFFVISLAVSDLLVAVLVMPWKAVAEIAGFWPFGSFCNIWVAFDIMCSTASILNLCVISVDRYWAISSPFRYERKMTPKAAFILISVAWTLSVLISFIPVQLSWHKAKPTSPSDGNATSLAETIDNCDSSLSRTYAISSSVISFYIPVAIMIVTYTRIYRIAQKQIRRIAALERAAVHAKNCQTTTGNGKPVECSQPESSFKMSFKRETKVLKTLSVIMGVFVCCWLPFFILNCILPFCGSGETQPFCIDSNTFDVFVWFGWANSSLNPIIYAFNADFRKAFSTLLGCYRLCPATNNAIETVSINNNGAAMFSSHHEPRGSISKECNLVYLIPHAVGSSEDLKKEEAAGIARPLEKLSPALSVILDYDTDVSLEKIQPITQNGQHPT

5HT1A = biological target: T3, 5HT1A (Homo sapiens, UniProt P08908); assay type: binding
T3 sequence (P08908 1-422): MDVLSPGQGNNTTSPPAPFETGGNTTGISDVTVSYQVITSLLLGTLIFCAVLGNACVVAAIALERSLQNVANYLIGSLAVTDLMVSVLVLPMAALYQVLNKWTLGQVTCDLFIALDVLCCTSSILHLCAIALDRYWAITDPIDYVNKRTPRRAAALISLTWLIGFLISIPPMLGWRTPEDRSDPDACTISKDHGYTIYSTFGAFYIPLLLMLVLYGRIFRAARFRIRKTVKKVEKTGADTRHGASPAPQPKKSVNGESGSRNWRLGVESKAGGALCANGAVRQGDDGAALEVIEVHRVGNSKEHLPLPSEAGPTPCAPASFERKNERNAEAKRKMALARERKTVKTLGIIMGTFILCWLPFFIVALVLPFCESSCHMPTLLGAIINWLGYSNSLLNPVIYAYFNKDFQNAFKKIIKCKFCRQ

Alpha1A = biological target: T4, Alpha1A (Homo sapiens, UniProt P35348); assay type: binding
T4 sequence (P35348 1-466): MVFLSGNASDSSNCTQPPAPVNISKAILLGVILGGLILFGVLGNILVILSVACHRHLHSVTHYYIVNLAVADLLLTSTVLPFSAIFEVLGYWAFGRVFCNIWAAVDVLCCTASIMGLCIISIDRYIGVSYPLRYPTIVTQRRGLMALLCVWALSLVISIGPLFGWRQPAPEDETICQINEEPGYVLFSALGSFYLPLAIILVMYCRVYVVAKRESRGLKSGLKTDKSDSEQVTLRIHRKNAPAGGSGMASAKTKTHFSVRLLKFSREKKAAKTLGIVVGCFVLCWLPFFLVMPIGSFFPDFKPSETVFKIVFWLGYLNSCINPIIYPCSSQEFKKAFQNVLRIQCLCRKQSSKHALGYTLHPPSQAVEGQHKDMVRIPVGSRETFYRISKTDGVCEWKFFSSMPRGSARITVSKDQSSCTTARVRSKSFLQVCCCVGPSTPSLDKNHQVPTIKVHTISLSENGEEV

For `NC(=O)C1(N2CCCCC2)CCN(CCCC(=O)c2ccc(F)cc2)CC1` [Pipamperon, 1'-[3-(p-Fluorobenzoyl)propyl]-[1,4'-bipiperidine]-4'-carboxamide], the “pKi value towards other 5HT receptors” value (other 5HT receptors) was “less than 8”, the “pKi value towards other dopamine receptors” value (other dopamine receptors) was “less than 8” and the “Sedative effects of pipamperone” value ([1]; major depression study, pipamperone 2-4 mg/day) was “lacking”. For the same compound, the “boosting effect of pipamperone on a SSRI, in this case citalopram” value ([1]; major depression, pipamperone 2-4 mg/day + citalopram 20-40 mg/day PO, 8 weeks) was “apparent”.

For `O=C(C[C@H]1CCN(CCOc2cccc3c2OCCO3)C1)c1ccc(F)cc1` [S16924], the “pKi D2” value (D2) was 7-8, the “pKi D3” value (D3) was 7-8 and the “pKi 5HT2C” value (5HT2C) was <6. For the same compound, the “pKi 5HT6rat” value (5HT6rat) was 6-7, the “pKi Beta1” value (Beta1) was <6 and the “pKi Beta2” value (Beta2) was <6.

For `OC1(c2ccc(Cl)cc2)CCN(Cc2c[nH]c3ccccc23)CC1` [L741626], the Ki (D3) was 0.01 to 0.1 µM, the Ki (5HT1B; read-out: pKi 5HT1B (converted)) was > 1 µM and the Ki (5HT1D) was > 1 µM. The Ki (5HT2B) was 0.1 to 1 µM and the Ki (Alpha2A) was > 1 µM.

With `N#Cc1ccc2c(c1)[C@H]1CN(CCCCNC(=O)c3ccc(-c4ccccc4)cc3)C[C@@H]1CO2` [S33084] the “pKi D1” value (D1) was 6-7, the “pKi D2” value (D2) was 7-8 and the “pKi 5HT1A” value (5HT1A) was <6. The “pKi 5HT1B” value (5HT1B) was 6-7, the “pKi 5HT1D” value (5HT1D) was 6-7 and the “pKi 5HT2B” value (5HT2B) was 6-7. The “pKi 5HT2C” value (5HT2C) was 7-8, the “pKi Alpha1A” value (Alpha1A) was 6-7 and the “pKi Alpha2A” value (Alpha2A) was <6.
